Assay results reported in patent US4713457A, “Ergoline derivatives and acid addition salts thereof” (priority 1985, dated 1987).
Where a name gives a salt, the structure may show the parent alone.

Assays:
[1] = test system: ddY male mice, KCN-induced anoxia; experiment: Activity on KCN-induced anoxia in mice; assay type: in vivo, mouse; settings: for Number of Survived Mice/Total Mice / Survival Time: KCN 2.5 mg/kg i.v.; for Brain protection activity (in words): Table 5
[2] = test system: Donryu male rats, indomethacin ulcer; experiment: Anti-ulcer activity, indomethacin-induced ulcer; assay type: in vivo, rat; settings: for Ulcer Index Inhibition / Ulcer Index: indomethacin 25 mg/kg; for Anti-ulcer activity (in words): Table 4
Protocol: The test compound was administered orally to Donryu male rats weighing 240 to 300 g (7 rats per group) which have been fasting for 24 hours before testing, and, after 30 minutes, indomethacin was administered orally to the rats at a dose of 25 mg/kg. The rats were then maintained for 7 hours without feeding water and foods and then sacrificed. The stomach was extracted and fixed by infusing 7.5 ml of a 2% formalin solution into the stomach. The stomach was incised along the greater curvature thereof, and length (mm) of each ulcer generated in gastric glands was determined. The total length of the ulcer per rat was expressed in terms of an ulcer index.
In this experiment, the test compound was suspended in a 0.5% aqueous gum arabic and administered at a volume of 5 ml/kg. Indomethacin (manufacturedby Sigma Co., Ltd.) was administered as a 0.5 wt% aqueous suspension in sodium carboxymethyl cellulose at a volume of 5 ml/kg. As a control, a 0.5 wt% suspension of aqueous gum arabic was orally administered at a volume of 5 ml/kg.

[3] = test system: unanesthetized spontaneously hypertensive rats; experiment: Heart rate determined simultaneously with blood pressure (sphygmometer connected to the pulse output); assay type: in vivo, rat; settings: for Changes in Heart Rate: 10 mg/kg oral
Protocol: (§1) The anti-hypertensive activity of the compounds was determined by the tail cuff method using unanesthetized spontaneously hypertensive rats weighing 300 to 350 g (21 to 25 week old). In this experiment, the systolic blood pressure was determined by the bloodless method using a hemodynamometer. The heart rate was determined simultaneously using a sphygmometer connected to the pulse output. After rats were placed under condition of 40° C. for 10 minutes, the blood pressure was determined by holding the rats in a holder. The test compounds were suspended in a 0.5 wt% aqueous gum arabic. Hydralazine hydrochloride used as a comparative agent was administered as an aqueous solution thereof. The volume of oral administration was 0.5 ml per 100 g of body weight.

[4] = test system: Rats, pylorus portion ligated (gastric secretion); experiment: Gastric secretion inhibitory activity in pylorus-ligated rats; assay type: in vivo, rat
Protocol: Rats weighing 200 to 250 g (8 rats per group) which have been fasting for 24 hours before testing were subjected to abdominal section under ether anesthesia, and the pylorus portion was ligated. Immediately after ligation, the test compound was administered into the duodenum as a suspension in a 5 wt% aqueous gum arabic at a volume of 2 ml/kg. The rats were sacrificed after 6 hours, and the stomach was extracted. The gastric juice was collected to determine the volume thereof, and the acidity of the gastic juice was titrated to a pH 7.0 with a 0.02N aqueous sodium hydroxide solution using a pH meter. The acid secretion amount per 6 hours (μEq/6 h) was calculated by (volume of gastric juice×acidity of gastric juice).

[5] = test system: unanesthetized spontaneously hypertensive rats; experiment: Anti-hypertensive activity, systolic blood pressure, tail cuff method; assay type: in vivo, rat; settings: 10 mg/kg oral
Protocol: as §1

[6] = test system: Rats with unilateral 6-hydroxydopamine lesion of the substantia nigra; experiment: Rotational activity in rats with unilateral 6-hydroxydopamine lesion of the substantia nigra; assay type: in vivo, rat
Protocol: Rats under pentobarbital sodium anesthesia (50 mg/kg, i.p.) were fixed on an apparatus for fixing brain, and 6-hydroxydopamine (8 μg/4 μl) was injected in the substantia nigra (A:3.0, L:2.6, D:7.8) according to Pellegrino & Cushman's atlas. Seven days after the injection of 6-hydroxydopamine, apomorphine was administered subcutaneously at a dose of 0.25 mg/kg, and the rats showing […] rotating movement to one side opposite to the destroyed side were selected. After 7 days, the test compound was administered intraperitoneally and, thereafter, rotating movement of the rats was observed over 1 minute at an interval of 5 minutes during a period of 60 minutes.

[7] = test system: ddY male mice, reserpine-induced immobility; experiment: Activity on reserpine-induced immobility (open-field method); assay type: in vivo, mouse; settings: reserpine 2 mg/kg, total of 1-min counts at 15, 30, 45, 60 min, ***p < 0.001
Protocol: Reserpine was administered intraperitoneally to ddY male mice (4 week old) at a dose of 2 mg/kg, and, after 18 to 20 hours, the test compound was administered intraperitoneally to the mice. Thereafter, the ambulation (the number of times of the animal crossed the demarcation line) of the mice was counted for a period of 1 minute at 15, 30, 45 and 60 minutes after the administration of the test compound, respectively, according to the open-field method. The total number of ambulation determined at 4 times in each mouse and compared with that of the control.

human = settings: in human, side-effect; cited from earlier work
[8] = 10 mg/kg into the duodenum, 6 hours
[9] = 10 mg/kg into the duodenum, 6 hours, *p < 0.05
[10] = 10 mg/kg i.p., **p < 0.01, ***p < 0.001, survivors counted as 180 sec
[11] = 10 mg/kg i.p., survived longer than 3 minutes
[12] = 100 mg/kg into the duodenum, 6 hours

| SMILES | Changes in Heart Rate ([3]; 1 hr after administration) | Changes in Heart Rate ([3]; 2 hrs after administration) | Changes in Heart Rate ([3]; 4 hrs after administration) | Changes in Heart Rate ([3]; 6 hrs after administration) | Changes in Heart Rate ([3]; 24 hrs after administration) | Changes in Systolic Blood Pressure ([5]; 1 hr after administration) | Changes in Systolic Blood Pressure ([5]; 2 hrs after administration) | Changes in Systolic Blood Pressure ([5]; 4 hrs after administration) | Changes in Systolic Blood Pressure ([5]; 6 hrs after administration) | Changes in Systolic Blood Pressure ([5]; 24 hrs after administration) | also measured |
| --- | --- | --- | --- | --- | --- | --- | --- | --- | --- | --- | --- |
| CN(C)CCOC(=O)COc1ccc(Cl)cc1 [Meclofenoxate Hydrochloride] | – | – | – | – | – | – | – | – | – | – | Number of Survived Mice/Total Mice ([1]; 200 mg/kg i.p.): 0/6; Survival Time ([1]; 200 mg/kg i.p.): 47.7 ± 4.4 s; Brain protection activity (in words) [1]: did not show any significant activity |
| CN1C[C@H](CN2CCOC2=O)C[C@@H]2c3cccc4[nH]cc(c34)C[C@H]21 [Example 2, 3-(6-Methylergolin-8β-ylmethyl)oxazolidin-2-one] | -39 Δ/min. | -74 Δ/min. | -58 Δ/min. | -56 Δ/min. | -23 Δ/min. | -64 Δ mmHg | -36 Δ mmHg | -37 Δ mmHg | -52 Δ mmHg | -11 Δ mmHg | Ulcer Index Inhibition ([2]; 10 mg/kg oral): 92.7%; Ulcer Index ([2]; 10 mg/kg oral, ***p < 0.001): 4.4 ± 2.3 mm; Volume of Acid Secreted, Inhibition [4, 8]: 70.8%; Volume of Gastric Juice, Inhibition [4, 8]: 63.3%; Total Acidity [4, 9]: 61.4 ± 7.5 mEq/liter; Survival Time [1, 10]: 144.4 ± 17.6 s; Number of Survived Mice/Total Mice [1, 11]: 5/8; Brain protection activity (in words) [1]: exhibited the activity higher that that of dihydroergotoxine methanesulfonate |
| CN1CC(=O)N(C[C@@H]2C[C@@H]3c4cccc5[nH]cc(c45)C[C@H]3N(C)C2)C1=O [Example 3, 1-Methyl-3-(6-methylergolin-8β-ylmethyl)imidazolidin-2,4-dione] | 26 Δ/min. | 1 Δ/min. | 2 Δ/min. | -4 Δ/min. | 1 Δ/min. | -57 Δ mmHg | -66 Δ mmHg | -31 Δ mmHg | -27 Δ mmHg | -4 Δ mmHg | Volume of Acid Secreted, Inhibition [4, 8]: 52.9%; Volume of Gastric Juice, Inhibition [4, 8]: 48.4%; Total Acidity [4, 9]: 70.0 ± 5.3 mEq/liter; pH of gastric juice [4, 9]: 2.07 ± 0.22; Acid output per 6 h ([4]; 10 mg/kg into the duodenum, *p < 0.05): 198.7 ± 34.3 μEq/6 h; Survival Time [1, 10]: 101.6 ± 17.8 s; Number of Survived Mice/Total Mice [1, 11]: 2/8 |
| CN1C[C@H](Cn2ccnc2)C[C@@H]2c3cccc4[nH]cc(c34)C[C@H]21 [Example 1, 1-(6-Methylergolin-8β-ylmethyl)imidazole] | -39 Δ/min. | -56 Δ/min. | -25 Δ/min. | -58 Δ/min. | -44 Δ/min. | -78 Δ mmHg | -49 Δ mmHg | -48 Δ mmHg | -60 Δ mmHg | -14 Δ mmHg | Volume of Acid Secreted, Inhibition [4, 8]: 73.3%; Volume of Gastric Juice, Inhibition [4, 8]: 67.8%; Total Acidity [4, 9]: 62.9 ± 3.8 mEq/liter |
| CN=C(NC#N)NCCSCc1nc[nH]c1C [Cimetidine, 1-cyano-2-methyl-3-[2-[[(5-methylimidazole-4-yl)methyl]thio]ethyl]guanidine, reference compound] | – | – | – | – | – | – | – | – | – | – | Ulcer Index Inhibition ([2]; 100 mg/kg oral): 53.7%; Ulcer Index ([2]; 100 mg/kg oral, **p < 0.01): 28.3 ± 8.4 mm; Volume of Acid Secreted ([4]; 100 mg/kg into the duodenum): 142.5 ± 60.5 μEq/6 h; Volume of Acid Secreted, Inhibition [4, 12]: 66.2%; Volume of Gastric Juice, Inhibition [4, 12]: 60.2% |
| CC(C)(CO)[C@@H](O)C(=O)NCCCC(=O)O [Calsium Hopantenate] | – | – | – | – | – | – | – | – | – | – | Number of Survived Mice/Total Mice ([1]; 500 mg/kg i.p.): 0/9; Survival Time ([1]; 500 mg/kg i.p.): 43.8 ± 2.5 s; Brain protection activity (in words) [1]: did not show any significant activity |
| NC[C@H]1CC[C@H](C(=O)Oc2ccc(CCC(=O)O)cc2)CC1 [Cetraxate, p-hydroxyhydrocinnamic acid trans-(4-aminomethyl)cyclohexane carboxylate] | – | – | – | – | – | – | – | – | – | – | Ulcer Index Inhibition ([2]; 100 mg/kg oral): 14.9%; Ulcer Index ([2]; 100 mg/kg oral, **p < 0.01): 52.1 ± 8.7 mm; Anti-ulcer activity (in words) [2]: did not show any significant anti-ulcer activity |
| CN1C[C@H](Cn2cncn2)C[C@@H]2c3cccc4[nH]cc(c34)C[C@H]21 [Example 6, 1-(6-Methylergolin-8β-ylmethyl)-1,2,4-triazole] | -8 Δ/min. | -30 Δ/min. | -33 Δ/min. | -21 Δ/min. | -10 Δ/min. | -64 Δ mmHg | -67 Δ mmHg | -62 Δ mmHg | -65 Δ mmHg | -14 Δ mmHg | Duration of increase in spontaneous movement and sniffing ([6]; 10 mg/kg i.p.): more than 5 hours; Number of Rotating Movement over 60 min. ([6]; 10 mg/kg i.p.): 0; Spontaneous movement and sniffing ([6]; 10 mg/kg i.p.): Increase in spontaneous movement and sniffing occurred markedly; Ambulation ([7]; 10 mg/kg i.p., n = 6): 198.8 ± 32.2 |
| CN1CCc2cccc3c2[C@H]1Cc1ccc(O)c(O)c1-3 [Apomorphine Hydrochloride, reference compound] | – | – | – | – | – | – | – | – | – | – | Number of Rotating Movement over 60 min. ([6]; 0.5 mg/kg i.p.): 147; Ambulation ([7]; 3 mg/kg i.p., n = 10): 71.0 ± 7.0 |
| CC(C)=CCOc1ccc(/C=C/C(=O)c2ccc(OCC=C(C)C)cc2OCC(=O)O)cc1 [Sofalcone] | – | – | – | – | – | – | – | – | – | – | Ulcer Index Inhibition ([2]; 100 mg/kg oral): 3.4%; Ulcer Index ([2]; 100 mg/kg oral, **p < 0.01): 59.2 ± 10.5 mm; Anti-ulcer activity (in words) [2]: did not show any significant anti-ulcer activity |
| Cc1nccn1C[C@@H]1C[C@@H]2c3cccc4[nH]cc(c34)C[C@H]2N(C)C1 [Example 9, 2-Methyl-1-(6-methylergolin-8β-ylmethyl)imidazole] | -12 Δ/min. | -27 Δ/min. | -36 Δ/min. | -32 Δ/min. | -3 Δ/min. | -50 Δ mmHg | -59 Δ mmHg | -60 Δ mmHg | -55 Δ mmHg | -9 Δ mmHg | – |
| NNc1nncc2ccccc12 [Hydralazine Hydrochloride, reference compound] | 65 Δ/min. | 66 Δ/min. | 75 Δ/min. | 64 Δ/min. | 44 Δ/min. | -47 Δ mmHg | -52 Δ mmHg | -67 Δ mmHg | -41 Δ mmHg | -22 Δ mmHg | Heart rate effect (in words) ([3]; Table 2): a marked increase in heart rate; Tachycardia (human): exhibited tachycardia in human as one of side-effects |
